According to ChEMBL document CHEMBL1201862, “PubChem BioAssay data set” (2004):
Activity calls are given as the source filed them.

Columns and labels:
Protein Wnt-3a = Protein Wnt-3a (Mus musculus, UniProt P27467); test: antagonism of Wnt3a pathway luciferase reporter – Wnt-LIGHT cells, luminescence, selectivity assay for Gli-SUFU antagonist project, dose response (AID 651570); assay type: functional; details: read-out: IC50_Mean;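 also: Wnt-LIGHT reporter cells stimulated with conditioned medium from Wnt3a-producing cells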
Protein Wnt-3a, sequence (P27467 whole entry, the tested form may be a part): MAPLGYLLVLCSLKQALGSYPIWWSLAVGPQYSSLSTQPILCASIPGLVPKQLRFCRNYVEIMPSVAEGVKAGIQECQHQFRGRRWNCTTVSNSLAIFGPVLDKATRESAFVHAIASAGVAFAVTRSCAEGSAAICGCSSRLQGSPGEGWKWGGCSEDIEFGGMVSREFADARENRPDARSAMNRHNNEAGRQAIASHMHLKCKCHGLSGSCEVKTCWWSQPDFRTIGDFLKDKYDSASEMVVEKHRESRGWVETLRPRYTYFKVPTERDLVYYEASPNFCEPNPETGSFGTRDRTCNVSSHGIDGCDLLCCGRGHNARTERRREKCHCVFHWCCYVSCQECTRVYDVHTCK

[1] = molecular target: T1, Sentrin-specific protease 1 (Homo sapiens, UniProt Q9P0U3); test: SENP1 catalytic domain blockers, concentration series – biochemical, kinetic FRET, dose response (AID 651697); assay type: functional; details: read-out: IC50_Mean
T1 sequence (Q9P0U3 whole entry): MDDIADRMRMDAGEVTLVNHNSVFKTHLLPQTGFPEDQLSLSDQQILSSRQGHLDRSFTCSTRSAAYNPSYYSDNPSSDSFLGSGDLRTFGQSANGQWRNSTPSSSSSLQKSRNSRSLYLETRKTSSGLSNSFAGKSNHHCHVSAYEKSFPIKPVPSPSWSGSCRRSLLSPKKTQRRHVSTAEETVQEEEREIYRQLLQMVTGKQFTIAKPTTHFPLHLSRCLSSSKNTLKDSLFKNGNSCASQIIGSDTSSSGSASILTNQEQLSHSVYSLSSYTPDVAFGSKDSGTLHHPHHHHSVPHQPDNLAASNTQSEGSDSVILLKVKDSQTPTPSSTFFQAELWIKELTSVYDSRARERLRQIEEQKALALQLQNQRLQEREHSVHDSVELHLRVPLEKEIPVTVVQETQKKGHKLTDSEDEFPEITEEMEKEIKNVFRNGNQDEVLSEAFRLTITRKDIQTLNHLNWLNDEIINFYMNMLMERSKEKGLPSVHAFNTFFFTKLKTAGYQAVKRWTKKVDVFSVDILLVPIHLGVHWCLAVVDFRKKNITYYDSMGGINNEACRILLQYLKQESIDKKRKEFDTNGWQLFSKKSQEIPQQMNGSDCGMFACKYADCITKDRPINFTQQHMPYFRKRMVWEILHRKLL

[2] = molecular target: T1, Sentrin-specific protease 1; test: Dose response confirmation of small molecule inhibitors of the catalytic domain of the SUMO protease, SENP1 in a FRET assay.; assay type: functional; details: read-out: IC50_Mean
[3] = molecular target: Nuclear receptor subfamily 5 group A member 2 (Homo sapiens, UniProt O00482); assay type: functional, cell-based;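 also: HEK293T cells transfected with LRH-1 and a StAR promoter luciferase reporter; potency for inhibitors that lower LRH-1 driven reporter light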
Nuclear receptor subfamily 5 group A member 2, sequence (O00482 whole entry): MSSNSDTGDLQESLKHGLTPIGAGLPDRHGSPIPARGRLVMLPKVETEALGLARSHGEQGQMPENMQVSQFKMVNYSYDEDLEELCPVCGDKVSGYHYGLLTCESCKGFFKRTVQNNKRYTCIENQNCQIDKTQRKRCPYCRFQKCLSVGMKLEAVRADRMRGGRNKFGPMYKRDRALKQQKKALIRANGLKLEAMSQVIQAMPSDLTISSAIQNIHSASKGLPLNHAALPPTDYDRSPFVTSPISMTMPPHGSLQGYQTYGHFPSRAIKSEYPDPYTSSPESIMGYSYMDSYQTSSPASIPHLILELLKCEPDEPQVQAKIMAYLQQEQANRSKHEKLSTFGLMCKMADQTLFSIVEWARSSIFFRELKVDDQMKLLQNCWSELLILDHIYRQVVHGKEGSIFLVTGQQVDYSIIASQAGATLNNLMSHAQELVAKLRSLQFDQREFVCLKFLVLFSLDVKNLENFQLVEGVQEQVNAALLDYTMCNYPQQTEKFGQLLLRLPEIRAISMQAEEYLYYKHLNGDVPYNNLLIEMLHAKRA

[4] = nonselective StAR promoter luciferase inhibitors – cell-based, luminescence, luciferase reporter, counter-screen for LRH-1 inverse agonist project, dose response (AID 651969); assay type: functional
Steroidogenic factor 1 = Steroidogenic factor 1 (Homo sapiens, UniProt Q13285); test: Counterscreen for inverse agonists of the liver receptor homolog-1 (LRH-1; NR5A2): Luminescence-based cell-based high throughput dose response assay to identify inverse agonists of the Steroidogenic Factor 1 Nuclear Receptor (SF1; NR5A1).; assay type: functional
Steroidogenic factor 1, sequence (Q13285 whole entry): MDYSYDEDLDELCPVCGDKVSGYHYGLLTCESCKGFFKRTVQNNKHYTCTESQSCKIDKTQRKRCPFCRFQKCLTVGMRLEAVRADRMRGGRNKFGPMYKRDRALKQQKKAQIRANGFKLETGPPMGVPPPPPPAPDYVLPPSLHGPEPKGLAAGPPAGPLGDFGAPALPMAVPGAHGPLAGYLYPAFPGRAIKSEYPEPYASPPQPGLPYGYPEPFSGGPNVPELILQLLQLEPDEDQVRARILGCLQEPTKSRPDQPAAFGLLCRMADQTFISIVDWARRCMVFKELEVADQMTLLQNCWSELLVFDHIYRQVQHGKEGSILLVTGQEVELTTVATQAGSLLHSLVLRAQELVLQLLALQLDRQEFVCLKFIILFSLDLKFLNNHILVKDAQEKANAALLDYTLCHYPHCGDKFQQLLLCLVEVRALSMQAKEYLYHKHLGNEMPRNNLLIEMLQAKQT

Caspase-3 = molecular target: T2, Caspase-3 (Homo sapiens, UniProt P42574); assay type: functional;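 also: Dose-response selectivity test against caspase-3 for candidate inhibitors of sentrin-specific proteases (SENPs)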
T2 sequence (P42574 whole entry): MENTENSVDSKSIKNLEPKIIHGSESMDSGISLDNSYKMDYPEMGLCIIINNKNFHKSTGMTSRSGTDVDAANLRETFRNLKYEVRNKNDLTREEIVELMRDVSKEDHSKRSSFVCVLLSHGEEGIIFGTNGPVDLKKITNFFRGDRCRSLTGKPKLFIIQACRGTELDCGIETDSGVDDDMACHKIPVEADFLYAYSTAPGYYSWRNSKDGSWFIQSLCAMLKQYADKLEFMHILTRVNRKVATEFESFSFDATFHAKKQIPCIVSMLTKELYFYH

[5] = molecular target: T3, Sentrin-specific protease 7 (Homo sapiens, UniProt Q9BQF6); assay type: functional;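 also: Luminescence-based dose-response confirmation of ultra-high-throughput screening hits, measuring inhibition of SENP7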
T3 sequence (Q9BQF6 whole entry): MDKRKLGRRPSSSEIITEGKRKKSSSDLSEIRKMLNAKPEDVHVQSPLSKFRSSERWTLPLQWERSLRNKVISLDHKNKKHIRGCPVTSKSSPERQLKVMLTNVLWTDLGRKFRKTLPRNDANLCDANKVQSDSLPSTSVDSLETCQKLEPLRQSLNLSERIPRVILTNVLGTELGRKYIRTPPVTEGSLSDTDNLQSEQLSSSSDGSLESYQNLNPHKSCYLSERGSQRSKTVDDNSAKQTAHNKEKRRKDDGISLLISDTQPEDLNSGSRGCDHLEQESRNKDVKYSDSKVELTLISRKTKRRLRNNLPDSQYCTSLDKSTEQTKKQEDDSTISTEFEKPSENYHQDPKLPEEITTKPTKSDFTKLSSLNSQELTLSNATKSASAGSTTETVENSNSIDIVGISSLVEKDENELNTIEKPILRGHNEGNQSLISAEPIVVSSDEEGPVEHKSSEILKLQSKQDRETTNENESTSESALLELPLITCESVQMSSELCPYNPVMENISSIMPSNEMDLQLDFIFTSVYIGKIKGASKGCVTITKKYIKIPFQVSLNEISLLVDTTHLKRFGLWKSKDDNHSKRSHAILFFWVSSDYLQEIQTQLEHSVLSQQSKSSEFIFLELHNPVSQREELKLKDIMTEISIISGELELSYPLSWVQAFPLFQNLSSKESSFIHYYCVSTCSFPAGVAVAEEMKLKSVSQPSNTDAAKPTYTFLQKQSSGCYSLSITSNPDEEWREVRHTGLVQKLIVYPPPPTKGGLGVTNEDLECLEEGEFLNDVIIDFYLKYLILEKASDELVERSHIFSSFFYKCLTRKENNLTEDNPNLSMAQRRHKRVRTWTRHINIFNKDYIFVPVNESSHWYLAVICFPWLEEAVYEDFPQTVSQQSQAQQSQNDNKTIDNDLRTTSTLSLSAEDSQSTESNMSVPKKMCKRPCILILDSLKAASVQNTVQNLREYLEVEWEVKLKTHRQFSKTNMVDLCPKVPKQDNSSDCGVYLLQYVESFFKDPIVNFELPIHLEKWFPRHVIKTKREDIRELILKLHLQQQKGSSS

[6] = molecular target: T4, Sentrin-specific protease 6 (Homo sapiens, UniProt Q9GZR1); assay type: functional;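 also: Luminescence-based dose-response confirmatory assay of SENP6 inhibition, following up an ultra-high-throughput screen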
T4 sequence (Q9GZR1 whole entry): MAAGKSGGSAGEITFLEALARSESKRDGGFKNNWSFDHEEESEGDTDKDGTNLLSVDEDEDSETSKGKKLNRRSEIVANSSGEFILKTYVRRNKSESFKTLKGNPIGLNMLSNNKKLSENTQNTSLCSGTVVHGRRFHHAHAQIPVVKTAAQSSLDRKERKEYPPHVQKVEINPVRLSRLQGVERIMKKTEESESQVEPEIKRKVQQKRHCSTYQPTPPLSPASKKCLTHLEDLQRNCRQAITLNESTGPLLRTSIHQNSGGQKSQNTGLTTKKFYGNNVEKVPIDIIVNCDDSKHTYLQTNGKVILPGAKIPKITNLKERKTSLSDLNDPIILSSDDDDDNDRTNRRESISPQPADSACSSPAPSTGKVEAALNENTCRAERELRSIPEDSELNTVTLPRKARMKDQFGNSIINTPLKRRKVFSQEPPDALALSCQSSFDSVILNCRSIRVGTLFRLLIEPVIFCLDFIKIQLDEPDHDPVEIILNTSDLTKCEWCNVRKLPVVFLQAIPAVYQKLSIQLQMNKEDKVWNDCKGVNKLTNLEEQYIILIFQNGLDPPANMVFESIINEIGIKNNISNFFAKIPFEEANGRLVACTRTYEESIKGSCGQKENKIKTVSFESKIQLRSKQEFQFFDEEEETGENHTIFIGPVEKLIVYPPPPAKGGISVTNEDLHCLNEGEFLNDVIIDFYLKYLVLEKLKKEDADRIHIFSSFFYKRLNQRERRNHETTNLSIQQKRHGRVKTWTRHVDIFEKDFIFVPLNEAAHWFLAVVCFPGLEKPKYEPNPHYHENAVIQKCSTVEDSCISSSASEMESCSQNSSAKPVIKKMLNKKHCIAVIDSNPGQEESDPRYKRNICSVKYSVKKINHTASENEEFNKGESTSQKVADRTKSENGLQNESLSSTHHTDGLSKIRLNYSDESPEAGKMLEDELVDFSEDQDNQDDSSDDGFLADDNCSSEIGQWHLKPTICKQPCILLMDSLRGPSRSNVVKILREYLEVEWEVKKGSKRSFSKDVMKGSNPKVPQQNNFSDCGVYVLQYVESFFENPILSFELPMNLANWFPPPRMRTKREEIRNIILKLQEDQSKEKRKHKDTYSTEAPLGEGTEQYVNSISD

H4 = test: Luminescence Cell-Based Dose Response HTS to Identify Activators of 5'UTR Stem-Loop Driven Prion Protein mRNA Translation in H4 Neuroglioblastoma Cells. [Related pubchem assays: 1829 (Project Summary), 1814 (Primary HTS)]; assay type: functional; details: Homo sapiens
[7] = Luminescence Cell-Based Dose Response HTS to Identify Activators of Luciferase Translation or Activity in H4 […] Cells. [Related pubchem assays: 1829 (Project Summary), 1814 (Primary HTS)]; assay type: functional
[8] = molecular target: T5, Sentrin-specific protease 8 (Homo sapiens, UniProt Q96LD8); assay type: functional;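 also: luminescence read-out of SENP8 inhibition, dose-response confirmation following an ultra-high-throughput screen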
T5 sequence (Q96LD8 whole entry): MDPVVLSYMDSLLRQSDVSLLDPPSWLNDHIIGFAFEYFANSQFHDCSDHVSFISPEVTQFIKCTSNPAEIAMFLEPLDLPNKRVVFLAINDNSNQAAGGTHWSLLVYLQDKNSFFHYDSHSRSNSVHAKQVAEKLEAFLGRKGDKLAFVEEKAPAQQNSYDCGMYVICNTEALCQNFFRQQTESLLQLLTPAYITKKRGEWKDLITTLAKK

Phospholipase A2 = Phospholipase A2 (Homo sapiens, UniProt P04054); assay type: functional;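 also: confirmatory dose-response counterscreen on phospholipase A2, testing hits that came from an ultra-high-throughput screen for ATG4B inhibitors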
Phospholipase A2, sequence (P04054 whole entry): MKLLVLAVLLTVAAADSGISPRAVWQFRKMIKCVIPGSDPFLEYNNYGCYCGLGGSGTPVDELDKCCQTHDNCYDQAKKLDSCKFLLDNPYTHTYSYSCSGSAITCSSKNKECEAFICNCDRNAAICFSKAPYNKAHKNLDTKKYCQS

Cysteine protease ATG4B = molecular target: T6, Cysteine protease ATG4B (Homo sapiens, UniProt Q9Y4P1); assay type: functional;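 also: Fluorescence-based dose-response confirmation assay measuring inhibition of ATG4B activity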
T6 sequence (Q9Y4P1 whole entry): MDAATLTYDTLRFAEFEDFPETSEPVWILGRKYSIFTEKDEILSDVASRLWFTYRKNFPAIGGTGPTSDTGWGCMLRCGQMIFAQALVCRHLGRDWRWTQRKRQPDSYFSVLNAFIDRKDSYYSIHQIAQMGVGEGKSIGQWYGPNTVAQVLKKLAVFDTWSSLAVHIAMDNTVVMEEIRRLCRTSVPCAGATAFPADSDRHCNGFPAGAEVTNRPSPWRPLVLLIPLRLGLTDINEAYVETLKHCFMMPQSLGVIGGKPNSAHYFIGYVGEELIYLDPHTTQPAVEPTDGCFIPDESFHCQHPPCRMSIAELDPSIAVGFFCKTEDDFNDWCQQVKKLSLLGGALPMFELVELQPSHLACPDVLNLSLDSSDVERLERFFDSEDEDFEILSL

## O=[N+]([O-])c1ccc(N2CCN(C(=S)NCc3ccc(Cl)cc3)CC2)cc1
Protein Wnt-3a
  IC50: 5.08 µM (active)

## Cc1ccc2cc3c(N)c(C(=O)N4CCOCC4)sc3nc2c1
[1]
  IC50: 35.9 µM (inactive)
[2]
  IC50: 30.6 µM (inactive)

## Cc1c(NC(=S)NC(=O)c2ccc(Cl)cc2)c(=O)n(-c2ccccc2)n1C
[3]
  IC50: 12 µM (inactive)
[4]
  IC50: 35.9 µM (inactive)
Steroidogenic factor 1
  IC50: 35.9 µM (inactive)

## Clc1nnc(N/N=C/c2ccccc2)c2ccccc12
Caspase-3
  IC50: 6.38 µM (active)
[5]
  IC50: 2.83 µM (active)
[6]
  IC50: 5.57 µM (active)
H4
  EC50: 5.27 µM (active)
[7]
  EC50: 0.694 µM (active)
[8]
  IC50: 8.2 µM (active)

## Clc1ccc(-c2c[n+](-c3ccccc3)c3n2CCS3)cc1
Protein Wnt-3a
  IC50: 22.5 µM (inactive)

## CC/C=C\C/C=C\C/C=C\CCCCCCCC(=O)O [LINOLENIC ACID]
Phospholipase A2
  IC50: 22.3 µM (inactive)
Cysteine protease ATG4B
  IC50: 15.3 µM (active)
